{"source": "paper PMC8177795", "about": "(Cancer Science, 2021)", "key": {"[1]": {"assay": "Safety and tolerability", "type": "in vivo, Japanese patients"}, "[2]": {"system": "relapsed/refractory (r/r) B‐cell malignancies", "assay": "Antitumor activity", "type": "in vivo, Japanese patients"}, "[3]": {"assay": "Plasma pharmacokinetics of acalabrutinib and ACP‐5862", "type": "in vivo, Japanese patients"}, "[4]": {"conditions": "r/r CLL; cited from earlier work"}, "[5]": {"system": "r/r MCL", "conditions": "cited from earlier work"}, "[6]": {"conditions": "CLL/SLL cohort (n = 9), Part 1 + Part 2"}, "[7]": {"conditions": "MCL cohort (n = 13), Part 1 + Part 2"}, "[8]": {"conditions": "multiple dose 100 mg BID, day 8, part 1"}, "[9]": {"conditions": "multiple dose 100 mg BID, day 8, part 1, fasting"}}, "data": [{"smiles": "CC#CC(=O)N1CCC[C@H]1c1nc(-c2ccc(C(=O)Nc3ccccn3)cc2)c2c(N)nccn12", "note": "[acalabrutinib]", "values": [{"measurement": "AE of clinical interest: Other leukopenia", "setting": "[1]; r/r CLL/SLL cohort (N = 9)", "value": "0 n (%)"}, {"measurement": "AE of clinical interest: Second primary malignancies (excl. nonmelanoma skin cancer)", "setting": "[1]; r/r CLL/SLL cohort (N = 9)", "value": "1 (11.1) n (%)"}, {"measurement": "AE of clinical interest: Second primary malignancy", "setting": "[1]; r/r CLL/SLL cohort (N = 9)", "value": "1 (11.1) n (%)"}, {"measurement": "AE of clinical interest: Thrombocytopenia", "setting": "[1]; r/r CLL/SLL cohort (N = 9)", "value": "1 (11.1) n (%)"}, {"measurement": "AE of clinical interest: Tumor lysis syndrome", "setting": "[1]; r/r CLL/SLL cohort (N = 9)", "value": "0 n (%)"}, {"measurement": "Patients with any AE of clinical interest", "setting": "[1]; r/r CLL/SLL cohort (N = 9)", "value": "8 (88.9) n (%)"}, {"measurement": "Patients with any SAE", "setting": "[1]; r/r CLL/SLL cohort (N = 9)", "value": "2 (22.2) n (%)"}, {"measurement": "SAE: Abdominal pain upper", "setting": "[1]; r/r CLL/SLL cohort (N = 9)", "value": "0 n (%)"}, {"measurement": "SAE: Anemia", "setting": "[1]; r/r CLL/SLL cohort (N = 9)", "value": "0 n (%)"}, {"measurement": "SAE: Blood and lymphatic system disorders", "setting": "[1]; r/r CLL/SLL cohort (N = 9)", "value": "0 n (%)"}, {"measurement": "SAE: Colon cancer", "setting": "[1]; r/r CLL/SLL cohort (N = 9)", "value": "1 (11.1) n (%)"}, {"measurement": "SAE: Gastrointestinal disorders", "setting": "[1]; r/r CLL/SLL cohort (N = 9)", "value": "0 n (%)"}, {"measurement": "SAE: Infections and infestations", "setting": "[1]; r/r CLL/SLL cohort (N = 9)", "value": "1 (11.1) n (%)"}, {"measurement": "SAE: Neoplasms benign, malignant, and unspecified (incl. cysts and polyps)", "setting": "[1]; r/r CLL/SLL cohort (N = 9)", "value": "1 (11.1) n (%)"}, {"measurement": "SAE: Pneumonia", "setting": "[1]; r/r CLL/SLL cohort (N = 9)", "value": "1 (11.1) n (%)"}, {"measurement": "AE of clinical interest: Anemia", "setting": "[1]; r/r MCL cohort (N = 13)", "value": "3 (23.1) n (%)"}, {"measurement": "AE of clinical interest: Atrial fibrillation", "setting": "[1]; r/r MCL cohort (N = 13)", "value": "1 (7.7) n (%)"}, {"measurement": "AE of clinical interest: Cardiac events", "setting": "[1]; r/r MCL cohort (N = 13)", "value": "1 (7.7) n (%)"}, {"measurement": "AE of clinical interest: Hemorrhage", "setting": "[1]; r/r MCL cohort (N = 13)", "value": "4 (30.8) n (%)"}, {"measurement": "AE of clinical interest: Hepatotoxicity", "setting": "[1]; r/r MCL cohort (N = 13)", "value": "2 (15.4) n (%)"}, {"measurement": "AE of clinical interest: Infections", "setting": "[1]; r/r MCL cohort (N = 13)", "value": "7 (53.8) n (%)"}, {"measurement": "AE of clinical interest: Interstitial lung disease/pneumonitis", "setting": "[1]; r/r MCL cohort (N = 13)", "value": "1 (7.7) n (%)"}, {"measurement": "AE of clinical interest: Leukopenia", "setting": "[1]; r/r MCL cohort (N = 13)", "value": "4 (30.8) n (%)"}, {"measurement": "AE of clinical interest: Neutropenia", "setting": "[1]; r/r MCL cohort (N = 13)", "value": "3 (23.1) n (%)"}, {"measurement": "AE of clinical interest: Other hemorrhage", "setting": "[1]; r/r MCL cohort (N = 13)", "value": "4 (30.8) n (%)"}, {"measurement": "AE of clinical interest: Other leukopenia", "setting": "[1]; r/r MCL cohort (N = 13)", "value": "3 (23.1) n (%)"}, {"measurement": "AE of clinical interest: Second primary malignancies (excl. nonmelanoma skin cancer)", "setting": "[1]; r/r MCL cohort (N = 13)", "value": "0 n (%)"}, {"measurement": "AE of clinical interest: Second primary malignancy", "setting": "[1]; r/r MCL cohort (N = 13)", "value": "0 n (%)"}, {"measurement": "AE of clinical interest: Thrombocytopenia", "setting": "[1]; r/r MCL cohort (N = 13)", "value": "3 (23.1) n (%)"}, {"measurement": "AE of clinical interest: Tumor lysis syndrome", "setting": "[1]; r/r MCL cohort (N = 13)", "value": "1 (7.7) n (%)"}, {"measurement": "Patients with any AE of clinical interest", "setting": "[1]; r/r MCL cohort (N = 13)", "value": "11 (84.6) n (%)"}, {"measurement": "Patients with any SAE", "setting": "[1]; r/r MCL cohort (N = 13)", "value": "3 (23.1) n (%)"}, {"measurement": "SAE: Abdominal pain upper", "setting": "[1]; r/r MCL cohort (N = 13)", "value": "1 (7.7) n (%)"}, {"measurement": "SAE: Anemia", "setting": "[1]; r/r MCL cohort (N = 13)", "value": "0 n (%)"}, {"measurement": "SAE: Blood and lymphatic system disorders", "setting": "[1]; r/r MCL cohort (N = 13)", "value": "0 n (%)"}, {"measurement": "SAE: Colon cancer", "setting": "[1]; r/r MCL cohort (N = 13)", "value": "0 n (%)"}, {"measurement": "SAE: Gastrointestinal disorders", "setting": "[1]; r/r MCL cohort (N = 13)", "value": "1 (7.7) n (%)"}, {"measurement": "SAE: Infections and infestations", "setting": "[1]; r/r MCL cohort (N = 13)", "value": "2 (15.4) n (%)"}, {"measurement": "SAE: Neoplasms benign, malignant, and unspecified (incl. cysts and polyps)", "setting": "[1]; r/r MCL cohort (N = 13)", "value": "0 n (%)"}, {"measurement": "SAE: Pneumonia", "setting": "[1]; r/r MCL cohort (N = 13)", "value": "2 (15.4) n (%)"}, {"measurement": "CR", "setting": "[2]; [6]", "value": "0 Number (%) of patients with a response"}, {"measurement": "CRi", "setting": "[2]; [6]", "value": "2 (22) Number (%) of patients with a response"}, {"measurement": "Clinical PD", "setting": "[2]; [6]", "value": "0 Number (%) of patients with a response"}, {"measurement": "Nonresponse (total)", "setting": "[2]; [6]", "value": "1 (11) Number (%) of patients with a response"}, {"measurement": "Not evaluable", "setting": "[2]; [6]", "value": "0 Number (%) of patients with a response"}, {"measurement": "ORR", "setting": "[2]; [6]", "value": "8 (89) Number (%) of patients with a response"}, {"measurement": "PD", "setting": "[2]; [6]", "value": "0 Number (%) of patients with a response"}, {"measurement": "PR", "setting": "[2]; [6]", "value": "6 (67) Number (%) of patients with a response"}, {"measurement": "PRL", "setting": "[2]; [6]", "value": "1 (11) Number (%) of patients with a response"}, {"measurement": "Stable disease", "setting": "[2]; [6]", "value": "0 Number (%) of patients with a response"}, {"measurement": "ORR", "setting": "[2]; CLL/SLL cohort including PRL (n = 9), Part 1 + Part 2", "value": "9 (100) Number (%) of patients with a response"}, {"measurement": "CR", "setting": "[2]; [7]", "value": "5 (38) Number (%) of patients with a response"}, {"measurement": "Nonresponse (total)", "setting": "[2]; [7]", "value": "5 (38) Number (%) of patients with a response"}, {"measurement": "Not evaluable", "setting": "[2]; [7]", "value": "0 Number (%) of patients with a response"}, {"measurement": "ORR", "setting": "[2]; [7]", "value": "8 (62) Number (%) of patients with a response"}, {"measurement": "PD", "setting": "[2]; [7]", "value": "2 (15) Number (%) of patients with a response"}, {"measurement": "PR", "setting": "[2]; [7]", "value": "3 (23) Number (%) of patients with a response"}, {"measurement": "Stable disease", "setting": "[2]; [7]", "value": "3 (23) Number (%) of patients with a response"}, {"measurement": "Overall response rate (ORR)", "setting": "[2]; r/r CLL/SLL cohort (8/9 patients)", "value": 89, "unit": "%"}, {"measurement": "Median progression‐free survival (PFS)", "setting": "[2]; r/r CLL/SLL cohort (n = 9)", "value": "not reached"}, {"measurement": "Overall response rate (ORR)", "setting": "[2]; r/r CLL/SLL cohort including PRL (9/9 patients)", "value": 100, "unit": "%"}, {"measurement": "Overall response rate (ORR)", "setting": "[2]; r/r MCL cohort (8/13 patients)", "value": 62, "unit": "%"}, {"measurement": "Median progression‐free survival (PFS)", "setting": "[2]; r/r MCL cohort (n = 13)", "value": 7, "unit": "months"}, {"measurement": "Coefficient of variation (CV) of Cmax", "setting": "[3]; after a single dose", "value": 174, "unit": "%"}, {"measurement": "Interpatient variability (CVs)", "setting": "[3]; after multiple dosing", "value": "< 30", "unit": "%"}, {"measurement": "RAC (extent of accumulation on multiple dosing), Amean ± SD", "setting": "[3]; [8]", "value": 1.69}, {"measurement": "TC (time dependency of pharmacokinetics), Amean ± SD", "setting": "[3]; [8]", "value": "1.163 ± 0.4770"}, {"measurement": "CL/F (oral clearance), Amean ± SD", "setting": "[3]; [9]", "value": "84.89 ± 19.84", "unit": "L/h"}, {"measurement": "t1/2, Amean ± SD", "setting": "[3]; [9]", "value": "1.795 ± 0.7404", "unit": "h"}, {"measurement": "RAC (extent of accumulation on multiple dosing), Amean ± SD", "setting": "[3]; multiple dose 100 mg BID, day 8, part 1, listed as Acalabrutinib", "value": "1.694 ± 1.275"}, {"measurement": "CL/F (oral clearance), Amean ± SD", "setting": "[3]; single dose 100 mg acalabrutinib, part 1, fasting", "value": "99.54 ± 44.33", "unit": "L/h"}, {"measurement": "Absorption", "setting": "[3]; single‐ and multiple‐dose periods", "value": "rapidly absorbed"}, {"measurement": "Headache, patients", "setting": "[4]", "value": 43, "unit": "%"}, {"measurement": "Headache, patients", "setting": "[5]", "value": 38, "unit": "%"}]}]}
